In the PolyMetriX glass transition set:

| glass transition temperature [°C] | SMILES |
| --- | --- |
| 200.00 | */C(=C(/*)c1cccc([Si](C)(C)C)c1)c1ccccc1 (repeat unit) |
| 63.00 | */C=C(\C#N)C(=O)OCCCCCCOC(=O)/C(C#N)=C/c1ccc2c(c1)c1cc(*)ccc1n2CCCCCCCCCCCn1c2ccccc2c2ccccc21 (repeat unit) |
| 46.00 | */C=C/c1cc(OCCCCCCC)c(/C=C/c2ccc(*)cc2)cc1OCCCCCCC (repeat unit) |
| 153.00 | */C=C/c1cc(OCCCCCCCC)c(/C=C/c2ccc(*)c3nsnc23)cc1OCCCCCCCC (repeat unit) |
| 44.00 | */C=C/c1cc(OCCCCCCCCC)c(/C=C/c2ccc(*)cc2)cc1OCCCCCCCCC (repeat unit) |
| 38.00 | */C=C/c1cc(OCCCCCCCCCCCC)c(/C=C/c2ccc(*)cc2)cc1OCCCCCCCCCCCC (repeat unit) |
| 155.00 | */C=C/c1ccc(/C=C/c2ccc3c(c2)Sc2cc(*)ccc2N3c2ccc(OCCCCCCCCCCCC)cc2)s1 (repeat unit) |
| 32.70 | *=Cc1cc(OCCCCCCCC)c(/C=N/c2ccc(N=*)cc2)cc1OCCCCCCCC (repeat unit) |
| 210.00 | *CC(C)(C)C1C(=O)N(c2c(CC)cccc2CC)C(=O)C1* (repeat unit) |
| 180.00 | *CC(CC(*)(C#N)C#N)c1ccc(F)cc1 (repeat unit) |
| 180.00 | *CC(CC(*)(C#N)C#N)c1ccc(OC(C)=O)cc1 (repeat unit) |
| 1.00 | *CC(COC(=O)CCCCCN1C(=O)C2C3C=CC(C3)C2C1=O)O* (repeat unit) |
| 62.50 | *CC(COC(=O)c1ccc(N2C(=O)C3C4C=CC(C4)C3C2=O)cc1)O* (repeat unit) |
| 111.00 | *CC(COc1ccc(-c2ccc(OC)cc2)cc1)O* (repeat unit) |
| 28.00 | *CC(Cc1ccc(-c2ccccc2)cc1)C[Si](*)(C)C (repeat unit) |
| 98.00 | *CC(F)(F)C1(F)CC(CC(O)(C(F)(F)F)C(F)(F)F)CC1* (repeat unit) |
| 72.00 | *CC(O)CCCCC(O)CN(*)c1ccc(N(C)C)cc1 (repeat unit) |
| 150.00 | *CC(O)CN(*)c1cc(C)c(/N=N/c2ccc(C#N)cc2)c(C)c1 (repeat unit) |
| 150.00 | *CC(O)CN(*)c1cc(C)c(/N=N/c2ccc(Cl)cc2)c(C)c1 (repeat unit) |
| 152.00 | *CC(O)CN(*)c1cc(C)c(/N=N/c2ccc([N+](=O)[O-])cc2)c(C)c1 (repeat unit) |
| 99.00 | *CC(O)CN(*)c1ccc(/N=N/c2ccc(C(=O)O)cc2)cc1 (repeat unit) |
| 101.00 | *CC(O)CN(C)S(=O)(=O)c1ccc(-c2ccc(S(=O)(=O)N(C)CC(O)COc3ccc(C(C)(C)c4ccc(O*)cc4)cc3)cc2)cc1 (repeat unit) |
| 84.00 | *CC(O)CN(C)S(=O)(=O)c1ccc(-c2ccc(S(=O)(=O)N(C)CC(O)COc3ccc(O*)cc3)cc2)cc1 (repeat unit) |
| 66.00 | *CC(O)CN(C)S(=O)(=O)c1cccc(S(=O)(=O)N(C)CC(O)COc2ccc(O*)cc2)c1 (repeat unit) |
| 134.00 | *CC(OC)C(C)(C(=O)OC)C(*)(C)C(=O)OC (repeat unit) |

| glass transition temperature [°C] | SMILES |
| --- | --- |
| 48.00 | *CCCC(O)CN(CCCC)c1ccc(C#Cc2ccc(S(*)(=O)=O)cc2)cc1 (repeat unit) |
| 55.00 | *CCCCCCCCNC(=O)CC(=O)N* (repeat unit) |
| 96.70 | *CCCCCCCCn1c2ccccc2c2cc(/C=C(\C#N)C(=O)OCCCCCCOC(=O)/C(C#N)=C/c3ccc4c(c3)c3ccccc3n4*)ccc21 (repeat unit) |
| 107.80 | *CCCCCCCn1c2ccccc2c2cc(/C=C(\C#N)C(=O)OCCCCCCOC(=O)/C(C#N)=C/c3ccc4c(c3)c3ccccc3n4*)ccc21 (repeat unit) |
| 91.00 | *CCCCCCNC(=O)CC(C)(C)c1ccc(C(C)(C)CC(=O)N*)cc1 (repeat unit) |
| 88.00 | *CCCCCCNC(=O)CC(C)c1ccc(C(C)CC(=O)N*)cc1 (repeat unit) |
| 16.00 | *CCCCCCOC(=O)CC(=O)OCCCCCCOc1ccc(-n2on2-c2ccc(O*)cc2)cc1 (repeat unit) |
| 90.00 | *CCCCCCOc1c(OC)cc(/C=C/c2ccc(/C=C/c3cc(OC)c(O*)c(OC)c3)cc2)cc1OC (repeat unit) |
| 117.70 | *CCCCCCn1c2ccccc2c2cc(/C=C(\C#N)C(=O)OCCCCCCOC(=O)/C(C#N)=C/c3ccc4c(c3)c3ccccc3n4*)ccc21 (repeat unit) |
| 31.00 | *CCCCOCC(O)CN(CC(O)CO*)c1ccc(N(C)C)cc1 (repeat unit) |
| 92.40 | *CCCS(=O)(=O)c1ccc(/N=N/c2ccc(N(CCCC)CC(=O)O*)cc2)cc1 (repeat unit) |
| 230.00 | *Nc1ccc(-c2ccc(NC(=O)Cc3cc(CC(*)=O)c(C)cc3C)cc2)cc1 (repeat unit) |
| 222.00 | *Nc1cccc(NC(=O)Cc2cc(CC(*)=O)c(C)cc2C)c1 (repeat unit) |
| 103.00 | *Oc1ccc(/C=C/c2cc(OCCCCCCCC)c(/C=C/c3ccc(Oc4cc5c6c(ccc7c8c(*)cc9c%10c(ccc(c4c67)c%108)C(=O)N(CCCCCCCC)C9=O)C(=O)N(CCCCCCCC)C5=O)cc3)cc2OCCCCCCCC)cc1 (repeat unit) |
| 195.00 | *Oc1ccc(C2(c3ccc(Oc4ccc(/C=C/C(=O)c5ccc(*)cc5)cc4)cc3)c3ccccc3-c3ccccc32)cc1 (repeat unit) |
| 205.00 | *Oc1ccc(NC(=O)/C=C/c2ccc(/C=C/C(=O)Nc3ccc(*)cc3)cc2)cc1 (repeat unit) |
| 190.00 | *Oc1ccc(S(=O)(=O)c2ccc(Oc3ccc(/C=C4\CCC/C(=C\c5ccc(*)cc5)C4=O)cc3)cc2)cc1 (repeat unit) |
| 190.00 | *Oc1ccc(S(=O)(=O)c2ccc(Oc3ccc(C4(c5ccc(Oc6ccc(S(=O)(=O)c7ccc(Oc8ccc(/C=C9\CCC/C(=C\c%10ccc(*)cc%10)C9=O)cc8)cc7)cc6)cc5)CCCCC4)cc3)cc2)cc1 (repeat unit) |
| 196.00 | *Oc1ccc(S(=O)(=O)c2ccc(Oc3ccc(C4(c5ccc(Oc6ccc(S(=O)(=O)c7ccc(Oc8ccc(/C=C9\CCCC/C(=C\c%10ccc(*)cc%10)C9=O)cc8)cc7)cc6)cc5)CCCCCC4)cc3)cc2)cc1 (repeat unit) |
| 156.00 | *SCC(=O)N/N=C/c1ccc(OCCCCCCCCCCOc2ccc(/C=N/NC(=O)CSc3nnc(*)s3)cc2OC)c(OC)c1 (repeat unit) |
| 74.00 | *c1ccc(/C=C/c2cc(OCCCCCCCC)c(/C=C/c3ccc(N(*)c4ccccc4)cc3)cc2OCCCCCCCC)cc1 (repeat unit) |
| 58.00 | *c1ccc(C(=O)OCCCCCCCCCCOc2ccc(/C=C/C(=O)/C=C/c3ccc(OCCCCCCCCCCOC(=O)c4ccc(-c5nnc(*)o5)cc4)cc3)cc2)cc1 (repeat unit) |
| 59.00 | *c1ccc(C(=O)OCCCCCCCCOc2ccc(/C=C/C(=O)/C=C/c3ccc(OCCCCCCCCOC(=O)c4ccc(-c5nnc(*)o5)cc4)cc3)cc2)cc1 (repeat unit) |
| 62.00 | *c1ccc(C(=O)OCCCCCCOc2ccc(/C=C/C(=O)/C=C/c3ccc(OCCCCCCOC(=O)c4ccc(-c5nnc(*)o5)cc4)cc3)cc2)cc1 (repeat unit) |
| 215.00 | *c1ccc(Oc2ccc(/C=C/c3ccc(Oc4ccc(-c5nnc(*)o5)cc4)cc3)cc2)cc1 (repeat unit) |

| SMILES | glass transition temperature [°C] |
| --- | --- |
| *CC(*)(C#N)C(=O)OC(C)C (repeat unit) | 66.00 |
| *CC(*)(C#N)C(=O)OCC (repeat unit) | 115.00 |
| *CC(*)(C#N)C(=O)OCC(C)C (repeat unit) | 51.00 |
| *CC(=O)C(*)c1ccccc1 (repeat unit) | 110.00 |
| *CC(=O)O* (repeat unit) | 45.00 |
| *CC(C)(C)C1C(=O)N(C(C)C)C(=O)C1* (repeat unit) | 145.00 |
| *CC(C)(C)C1C(=O)N(C)C(=O)C1* (repeat unit) | 156.50 |
| *CC(C)C(*)(C)C (repeat unit) | 37.00 |
| *CC(C)CC(*)(C)C(=O)OC (repeat unit) | 16.00 |
| *CC(CBr)O* (repeat unit) | -14.00 |
| *CC(CCCC)O* (repeat unit) | -69.00 |
| *CC(COC(C)(C)C)O* (repeat unit) | -24.00 |
| *CC(COc1ccccc1)O* (repeat unit) | 42.00 |
| *CC(CS(=O)(=O)CCCC)O* (repeat unit) | 37.00 |
| *CC(CSC(C)C)O* (repeat unit) | -44.00 |
| *CC(CSC)O* (repeat unit) | -37.00 |
| *CC(CSCC)O* (repeat unit) | -57.00 |
| *CC(CSCCC)O* (repeat unit) | -61.00 |
| *CC(C[Si](*)(C)C)c1ccccc1 (repeat unit) | -5.00 |
| *CC(O*)c1ccccc1 (repeat unit) | 34.00 |
| *CCCCCCCCCCN/C(C)=N/* (repeat unit) | 80.00 |
| *CCCCCOc1ccc(/C=C/C(=O)OCCN(CCOC(=O)/C=C/c2ccc(O*)cc2)c2ccc(/N=N/c3ccc([N+](=O)[O-])cc3)cc2)cc1 (repeat unit) | 92.00 |
| *NC(C)CC(*)=O (repeat unit) | 125.00 |
| *OC(C)CC(*)=O (repeat unit) | 3.40 |
| *OC(CCCCC)CC(*)=O (repeat unit) | -33.00 |
| *OC(CCCCCC)CC(*)=O (repeat unit) | -47.00 |
| *OC(CCCCCCC=C)CC(*)=O (repeat unit) | -50.00 |
